This test has as its system mice. As to the kind of experiment: Innate behavioral response to odorant in square odor box (3D depth imaging, AR-HMM analysis). The test is classed as in vivo, mouse.

Take `CC1=NC(C)SC1C` (stereo not drawn) [TMT]: for the setting “TMT delivered to one quadrant of the square box via olfactometer”, the “observed behavior of mice on odor exposure” value is “avoided the quadrant containing the predator cue and displayed prolonged periods of immobility traditionally described as freezing behavior”. For the same molecule, for the setting “after TMT exposure”, the “per frame entropy rate with self-transitions” value is 0.64±0.02 bits and the “per frame entropy rate without self-transitions” value was determined as 3.66±0.08 bits. Also, the “number of times the most commonly-expressed freezing trigram was expressed” value (after TMT exposure, in 300 minutes of imaging) was 716 times. Moreover, the “change in behavioral modules relative to control” value (n=15 in TMT, n=25 control, model co-trained on both datasets) is “several modules were up-or down-regulated after TMT exposure, but no new modules were introduced or eliminated relative to control”. In addition, the “average during-sequence velocity of freezing module sequences” value (under the influence of TMT, 5% concentration, delivered to one quadrant of the box) is −0.14±0.54 mm/sec.

Values taken from US10909691B2, “Automatically classifying animal behavior” (PRESIDENT AND FELLOWS OF HARVARD COLLEGE, priority 2016, dated 2021).
